Reference: patent publication US10881110B2, “Herbicidal compositions comprising isoxazolo[5,4-b]pyridines” (BASF SE, priority 2014, dated 2021)

How the values were obtained:
Test in all cases: greenhouse post-emergence herbicidal test
ABUTH = assay type: in vivo, Abutilon theophrast; design: key to herbicidal activity against ABUTH found: rating on a scale from 0 to 100; settings: post emergence
Outline: (§1)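 A 0 to 100 injury score, read 20 days after post-emergence application, reflects above-ground destruction or absent emergence at 100. Actives, formulated as a 10% by weight emulsion concentrate, were applied in water to plants 1–15 cm tall held at 10-25° C or 20-35° C.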

AMBEL = assay type: in vivo, Ambrosia artemisiifolia; design: key: rating on a scale from 0 to 100
Method: (§2) The culture containers used were plastic pots containing medium loamy sand with approximately 4.6% of humus and 69.9% sand as substrate. The seeds of the test plants were sown separately for each species.
(§3) For the post-emergence treatment, the test plants were grown to a plant height of from 1 to 15 cm, depending on the plant habit, and only then treated with the active compounds which had been suspended or emulsified in water. To this end, the test plants were either sown directly, and grown in the same containers, or they were first grown separately as seedlings and transplanted into the test containers a few days prior to treatment.
(§4) Depending on the species, the plants were kept at 10-25° C. and 20-35° C., respectively.
(§5) The test period extended over 1 to 3 weeks. During this time, the plants were tended and their response to the individual treatments was evaluated 20 days after treatment except mentioned otherwise.
(§6) Evaluation was carried out using a scale from 0 to 100. 100 means no emergence of the plants, or complete destruction of at least the above-ground parts, and 0 means no damage or normal course of growth.
(§7) The respective stated components A and B, and, if appropriate, C, were formulated as a 10% by weight strength emulsion concentrate and, with addition of the amount of solvent system, introduced into the spray liquor used for applying the active compound. In the examples, the solvent used was water.
(§8) In the examples below, using the method of S. R. Colby (1967) “Calculating synergistic and antagonistic responses of herbicide combinations”, Weeds 15, p. 22 ff., the value E, which is expected if the activity of the individual active compounds is only additive, was calculated. E=X+Y−(X·Y/100)

APESV = assay type: in vivo, Apera spica-venti; design: key to herbicidal activity against APESV found: rating on a scale from 0 to 100; settings: single active, post emergence
Outline: as §1

KCHSC = assay type: in vivo, Kochia scoparia; design: key to herbicidal activity against KCHSC found: rating on a scale from 0 to 100; settings: post emergence
Outline: (§9)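 Post-emergence greenhouse test: plants in loamy sand, sprayed at 1–15 cm height with aqueous spray liquor from 10% emulsion concentrates, kept at 10-25 °C or 20-35 °C by species. Damage scored 0–100 (100 = complete destruction), usually 20 days after treatment. Expected additive effect E from Colby: E=X+Y−(X·Y/100).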

POLCO = assay type: in vivo, Polygonum convolvulus; design: key to herbicidal activity against POLCO found: rating on a scale from 0 to 100; settings: post emergence
Outline: as §9

VIOAR = assay type: in vivo, Viola arvensis; design: key to herbicidal activity against VIOAR found / herbicidal activity against VIOLA found: rating on a scale from 0 to 100; settings: post emergence
Outline: as §9

ALOMY = assay type: in vivo, Alopecurus myosuroides; design: key to herbicidal activity against ALOMY found: rating on a scale from 0 to 100; settings: post emergence
Outline: as §1

ERICA = assay type: in vivo, Conyza canadensis; design: key to herbicidal activity against ERICA found: rating on a scale from 0 to 100; settings: post emergence
Outline: as §1

GERDI = assay type: in vivo, Geranium dissectum; design: key to herbicidal activity against GERDI found: rating on a scale from 0 to 100; settings: post emergence
Outline: as §1

IPOHE = assay type: in vivo, Ipomoea hederacea; design: key to herbicidal activity against IPOHE found: rating on a scale from 0 to 100; settings: post emergence
Outline: as §9

STEME = assay type: in vivo, Stellaria media; design: key: scale 0 to 100
Method: as §2, §3, §4, §5, §6, §7, §8

ECHCG = assay type: in vivo, Echinochloa crus-galli; design: key to herbicidal activity against ECHCG found / herbicidal activity against ECHCH found: scale 0 to 100; settings: post emergence; I.1 31.25 g/ha, B.103 7.5 g/ha a.i.
Method: as §2, §3, §4, §5, §6, §7, §8

GALAP = assay type: in vivo, Galium aparine; design: key to herbicidal activity against GALAP found: rating on a scale from 0 to 100; settings: post emergence
Outline: as §9

PAPRH = assay type: in vivo, Papaver rhoeas; design: key: rating on a scale from 0 to 100; settings: B.103 15 g/ha a.i.
Outline: as §1

MATCH = assay type: in vivo, Matricaria recutita; design: key to herbicidal activity against MATCH found: rating on a scale from 0 to 100; settings: post emergence
Outline: as §1

[1] = I.1 31.25 g/ha, B.89 25 g/ha a.i.
[2] = I.1 62.5 g/ha, B.89 12.5 g/ha a.i.
[3] = I.1 62.5 g/ha, B.89 25 g/ha a.i.
[4] = I.1 15.62 g/ha, B.89 25 g/ha a.i.
[5] = application rate a.i.: I.1 31.25 g/ha, B.100 (isoxaflutole) 12.5 g/ha, alone or as mixture (composition 1.100)
[6] = application rate a.i.: I.1 62.5 g/ha, B.100 (isoxaflutole) 12.5 g/ha, alone or as mixture (composition 1.100)
[7] = I.1 31.25 g/ha, B.103 15 g/ha a.i.
[8] = I.1 62.5 g/ha, B.103 7.5 g/ha a.i.
[9] = I.1 62.5 g/ha, B.103 15 g/ha a.i.
[10] = I.1 15.6 g/ha, B.103 7.5 g/ha a.i.
[11] = I.1 31.25 g/ha, B.103 7.5 g/ha a.i.

Nc1cc(Cl)nc(C(=O)O)c1Cl [B.144, aminopyralid]
herbicidal activity against ABUTH found (ABUTH; single active, 4 g/ha a.i.): 0
herbicidal activity against AMBEL found (AMBEL; single active, 8 g/ha a.i.): 75
herbicidal activity against APESV found (APESV; 4 g/ha a.i.): 0
herbicidal activity against KCHSC found (KCHSC; single active, 4 g/ha a.i.): 0
herbicidal activity against KCHSC found (KCHSC; single active, 8 g/ha a.i.): 0
herbicidal activity against POLCO found (POLCO; single active, 4 g/ha a.i.): 98
herbicidal activity against POLCO found (POLCO; single active, 8 g/ha a.i.): 98
herbicidal activity against VIOLA found (VIOAR; single active, 4 g/ha a.i.): 0

CS(=O)(=O)NC(=O)c1cc(Oc2ccc(C(F)(F)F)cc2Cl)ccc1[N+](=O)[O-] [B.89, fomesafen]
herbicidal activity against ABUTH found (ABUTH; [1]): 90
herbicidal activity against ALOMY found (ALOMY; [2]): 25
herbicidal activity against ERICA found (ERICA; [3]): 20
herbicidal activity against GERDI found (GERDI; [4]): 25
herbicidal activity against GERDI found (GERDI; [2]): 25
herbicidal activity against GERDI found (GERDI; [3]): 25
herbicidal activity against IPOHE found (IPOHE; [4]): 85
herbicidal activity against IPOHE found (IPOHE; [1]): 85
herbicidal activity against IPOHE found (IPOHE; [2]): 85
herbicidal activity against IPOHE found (IPOHE; [3]): 85
herbicidal activity against POLCO found (POLCO; I.1 15.62 g/ha, B.89 12.5 g/ha a.i.): 95
herbicidal activity against STEME found (STEME; [4]): 0
herbicidal activity against STEME found (STEME; I.1 31.25 g/ha, B.89 12.5 g/ha a.i.): 0
herbicidal activity against STEME found (STEME; [1]): 0
herbicidal activity against VIOAR found (VIOAR; [2]): 55

CS(=O)(=O)c1cc(C(F)(F)F)ccc1C(=O)c1cnoc1C1CC1 [B.100, isoxaflutole]
herbicidal activity against AMBEL found (AMBEL; [5]): 45
herbicidal activity against AMBEL found (AMBEL; [6]): 45
herbicidal activity against ERICA found (ERICA; [5]): 80
herbicidal activity against ERICA found (ERICA; [6]): 80
herbicidal activity against GERDI found (GERDI; [5]): 0
herbicidal activity against GERDI found (GERDI; [6]): 0
herbicidal activity against POLCO found (POLCO; [5]): 60
herbicidal activity against VIOAR found (VIOAR; [6]): 70

O=C(Nc1ccc(F)cc1)c1cccc(Oc2cccc(C(F)(F)F)c2)n1 [B.103, picolinafen]
herbicidal activity against ECHCG found (ECHCG): 20
herbicidal activity against ERICA found (ERICA; [7]): 65
herbicidal activity against ERICA found (ERICA; [8]): 25
herbicidal activity against ERICA found (ERICA; [9]): 65
herbicidal activity against GALAP found (GALAP; [8]): 70
herbicidal activity against GERDI found (GERDI; [10]): 0
herbicidal activity against GERDI found (GERDI; [11]): 0
herbicidal activity against GERDI found (GERDI; [7]): 0
herbicidal activity against GERDI found (GERDI; [8]): 0
herbicidal activity against GERDI found (GERDI; [9]): 0
herbicidal activity against IPOHE found (IPOHE; [10]): 40
herbicidal activity against IPOHE found (IPOHE; [7]): 60
herbicidal activity against KCHSC found (KCHSC; [11]): 60
herbicidal activity against KCHSC found (KCHSC; [7]): 60
herbicidal activity against KCHSC found (KCHSC; [8]): 60
herbicidal activity against KCHSC found (KCHSC; [9]): 60
herbicidal activity against PAPRH found (PAPRH; I.1 15.62 g/ha): 70
herbicidal activity against PAPRH found (PAPRH; I.1 31.25 g/ha): 70
herbicidal activity against POLCO found (POLCO; [10]): 40
herbicidal activity against POLCO found (POLCO; [8]): 40
herbicidal activity against POLCO found (POLCO; [9]): 70
herbicidal activity against STEME found (STEME; I.1 15.62 g/ha, B.103 15 g/ha a.i.): 65

C#CCOC(=O)[C@@H](C)Oc1ccc(Oc2ncc(Cl)cc2F)cc1 [B.2, clodinafop-propargyl]
pest or weed control at 15 g/ha (ABUTH; Abutilon theophrasti, post-emergence, 480 h, 15 g/ha a.i., read-out: herbicidal activity against ABUTH found): 15%
pest or weed control at 15 g/ha (ALOMY; Alopecurus myosuroides, post-emergence, 480 h, 15 g/ha a.i., read-out: herbicidal activity against ALOMY found): 85%
pest or weed control at 7.5 g/ha (GALAP; Galium aparine, post-emergence, 480 h, 7.5 g/ha a.i., read-out: herbicidal activity against GALAP found): 0%
pest or weed control at 7.5 g/ha (GERDI; Geranium dissectum, post-emergence, 480 h, 7.5 g/ha a.i., read-out: herbicidal activity against GERDI found): 0%
pest or weed control at 7.5 g/ha (IPOHE; Ipomoea hederacea, post-emergence, 480 h, 7.5 g/ha a.i., read-out: herbicidal activity against IPOHE found): 10%
pest or weed control at 15 g/ha (IPOHE; Ipomoea hederacea, post-emergence, 480 h, 15 g/ha a.i., read-out: herbicidal activity against IPOHE found): 40%
pest or weed control at 15 g/ha (MATCH; Matricaria chamomilla, post-emergence, 480 h, 15 g/ha a.i., read-out: herbicidal activity against MATCH found): 0%
herbicidal activity against STEME found (STEME; 7.5 g/ha a.i.): 0

CCc1cccc(C)c1N(C(=O)CCl)[C@@H](C)COC [B.134, S-metolachlor]
herbicidal activity against ABUTH found (ABUTH; applied alone at 250 g/ha a.i.): 40
herbicidal activity against ALOMY found (ALOMY; applied alone at 250 g/ha a.i.): 0
herbicidal activity against ALOMY found (ALOMY; applied alone at 500 g/ha a.i.): 20
herbicidal activity against AMBEL found (AMBEL; applied alone at 250 g/ha a.i.): 25
herbicidal activity against AMBEL found (AMBEL; applied alone at 500 g/ha a.i.): 65
herbicidal activity against ERICA found (ERICA; applied alone at 250 g/ha a.i.): 25
herbicidal activity against ERICA found (ERICA; applied alone at 500 g/ha a.i.): 35
herbicidal activity against GALAP found (GALAP; applied alone at 250 g/ha a.i.): 45
herbicidal activity against GERDI found (GERDI; applied alone at 500 g/ha a.i.): 30
herbicidal activity against KCHSC found (KCHSC; applied alone at 500 g/ha a.i.): 30
herbicidal activity against POLCO found (POLCO; applied alone at 250 g/ha a.i.): 35
herbicidal activity against POLCO found (POLCO; applied alone at 500 g/ha a.i.): 60
herbicidal activity against VIOAR found (VIOAR; applied alone at 250 g/ha a.i.): 0
herbicidal activity against VIOAR found (VIOAR; applied alone at 500 g/ha a.i.): 0

Cc1ccc2c(c1)[C@H](Nc1nc(N)nc(C(C)F)n1)[C@@H](C)C2 (some centres unmarked) [B.178, indaziflam]
herbicidal activity against ABUTH found (ABUTH; single active, 6 g/ha a.i.): 60
herbicidal activity against AMBEL found (AMBEL; single active, 6 g/ha a.i.): 70
herbicidal activity against APESV found (APESV; 3 g/ha a.i.): 40
herbicidal activity against ERICA found (ERICA; single active, 3 g/ha a.i.): 15
herbicidal activity against ERICA found (ERICA; single active, 6 g/ha a.i.): 60
herbicidal activity against GALAP found (GALAP; single active, 3 g/ha a.i.): 65
herbicidal activity against GALAP found (GALAP; single active, 6 g/ha a.i.): 60
herbicidal activity against GERDI found (GERDI; single active, 3 g/ha a.i.): 55
herbicidal activity against GERDI found (GERDI; single active, 6 g/ha a.i.): 55
herbicidal activity against KCHSC found (KCHSC; single active, 3 g/ha a.i.): 15
herbicidal activity against MATCH found (MATCH; single active, 3 g/ha a.i.): 35
